Experimental data from PubChem BioAssay AID2060487 (Molecular Pharmacology Branch, DTP, NCI, 2025).

Tested on: 997537-175-T-J1-PDC complex spheroid viability
Test: Anticancer human tumor 997537-175-T-J1-PDC patient-derived colon adenocarcinoma cell line growth inhibition [GQUAD]
Conditions: for IC50: curve of first compound; for viability, T/C: stronger effect = lower value
Summary of the method: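 Viability of tumor cells grown as complex spheroids with endothelial and stromal cells, exposed to drug combinations. Top concentration at or near clinical Cmax (else 10 microM), diluted in half-log increments.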
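Further: spheroids exposed to the agents for 7 days.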
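Wherever viability, T/C is given: 100% = DMSO vehicle control viability.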

COc1cccc2c1C(=O)c1c(O)c3c(c(O)c1C2=O)CC(O)(C(=O)CO)CC3OC1CC(N)C(O)C(C)O1 (configuration not stated) + CN(C)c1ccc(Nc2c3ccc(NC(=O)CCN4CCCC4)cc3nc3cc(NC(=O)CCN4CCCC4)ccc23)cc1
IC50 (second compound 0.0316 µM): 6.55 µM
IC50 (second compound 0.1 µM): 8.54 µM
IC50 (second compound 0.316 µM): > 10 µM
IC50 (second compound 1 µM): > 10 µM
IC50 (second compound 3.16 µM): > 10 µM
IC50 (second compound 10 µM): > 10 µM
viability, T/C (second compound 0.0316 µM, first compound 0.0316 µM): 98%
viability, T/C (second compound 0.0316 µM, first compound 0.1 µM): 88.9%
viability, T/C (second compound 0.0316 µM, first compound 0.316 µM): 99.1%
viability, T/C (second compound 0.0316 µM, first compound 1 µM): 96.3%
viability, T/C (second compound 0.0316 µM, first compound 3.16 µM): 71.7%
viability, T/C (second compound 0.0316 µM, first compound 10 µM): 37.4%
viability, T/C (second compound 0.1 µM, first compound 0.0316 µM): 111%
viability, T/C (second compound 0.1 µM, first compound 0.1 µM): 88.3%
viability, T/C (second compound 0.1 µM, first compound 0.316 µM): 77.6%
viability, T/C (second compound 0.1 µM, first compound 1 µM): 94.8%
viability, T/C (second compound 0.1 µM, first compound 3.16 µM): 96.2%
viability, T/C (second compound 0.1 µM, first compound 10 µM): 42.9%
viability, T/C (second compound 0.316 µM, first compound 0.0316 µM): 89.5%
viability, T/C (second compound 0.316 µM, first compound 0.1 µM): 88.5%
viability, T/C (second compound 0.316 µM, first compound 0.316 µM): 101%
viability, T/C (second compound 0.316 µM, first compound 1 µM): 102%
viability, T/C (second compound 0.316 µM, first compound 3.16 µM): 94.6%
viability, T/C (second compound 0.316 µM, first compound 10 µM): 56.5%
viability, T/C (second compound 1 µM, first compound 0.0316 µM): 63.7%
viability, T/C (second compound 1 µM, first compound 0.1 µM): 86.7%
viability, T/C (second compound 1 µM, first compound 0.316 µM): 101%
viability, T/C (second compound 1 µM, first compound 1 µM): 83.8%
viability, T/C (second compound 1 µM, first compound 3.16 µM): 97%
viability, T/C (second compound 1 µM, first compound 10 µM): 51.5%
viability, T/C (second compound 3.16 µM, first compound 0.0316 µM): 74.8%
viability, T/C (second compound 3.16 µM, first compound 0.1 µM): 77.1%
viability, T/C (second compound 3.16 µM, first compound 0.316 µM): 107%
viability, T/C (second compound 3.16 µM, first compound 1 µM): 90%
viability, T/C (second compound 3.16 µM, first compound 3.16 µM): 99%
viability, T/C (second compound 3.16 µM, first compound 10 µM): 67.3%
viability, T/C (second compound 10 µM, first compound 0.0316 µM): 94.1%
viability, T/C (second compound 10 µM, first compound 0.1 µM): 84.2%
viability, T/C (second compound 10 µM, first compound 0.316 µM): 102%
viability, T/C (second compound 10 µM, first compound 1 µM): 83.3%
viability, T/C (second compound 10 µM, first compound 3.16 µM): 81%
viability, T/C (second compound 10 µM, first compound 10 µM): 58.2%
